Target: T1, AfCel6A (Aspergillus fumigatus, UniProt Q4WFK4)
T1 construct: gene cbhC; without predicted signal peptide (forward primer encodes QQTVW start) in pPICZαA, with N-terminal CBM1, His6 tag kept, secreted by Pichia pastoris X-33, about 65 kDa
T1 sequence (Q4WFK4 20-454): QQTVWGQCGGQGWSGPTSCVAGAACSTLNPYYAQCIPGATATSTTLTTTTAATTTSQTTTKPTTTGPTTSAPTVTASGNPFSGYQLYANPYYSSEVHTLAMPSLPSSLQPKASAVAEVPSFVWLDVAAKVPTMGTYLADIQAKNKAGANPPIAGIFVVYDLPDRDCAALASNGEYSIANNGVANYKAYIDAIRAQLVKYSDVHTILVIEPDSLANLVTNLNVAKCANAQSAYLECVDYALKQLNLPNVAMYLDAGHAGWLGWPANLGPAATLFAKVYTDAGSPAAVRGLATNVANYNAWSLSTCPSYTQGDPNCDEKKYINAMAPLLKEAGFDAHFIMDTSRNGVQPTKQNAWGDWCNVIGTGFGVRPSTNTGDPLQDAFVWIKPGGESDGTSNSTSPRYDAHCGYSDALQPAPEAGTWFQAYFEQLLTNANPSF
Assay: activity at rising sugar concentration ([…]), substrate 4-nitrophenyl β-D-cellobioside
Type: biochemical
Details: product inhibition; the text also states 50% inhibition at 100 mM

SMILES: OC[C@H]1O[C@@H](O[C@H]2[C@H](O)[C@@H](O)C(O)O[C@@H]2CO)[C@H](O)[C@@H](O)[C@@H]1O (stereo partly shown) [cellobiose]
- IC50: > 100 mM
